In PMC6791832, “In vitro inhibition of human red blood cell acetylcholinesterase (AChE) by temephos-oxidized products” (Scientific Reports, 2019):

Key:
[1] = biological target: T1, human red blood cell acetylcholinesterase (RBC AChE) (Homo sapiens, UniProt P22303); experiment: Human RBC AChE inhibition assay (Ellman method, hemolyzed whole blood); format: biochemical; details: for IC50: hemolyzed samples preincubated with compound for 15 min at 37 °C, three independent experiments in duplicate
T1 construct: from tissue; host or cells: whole blood (hemolyzed, 1:100 in Triton X-100) from one healthy adult volunteer
Description: RBC AChE and BuChE assays were performed on whole human blood and serum, respectively. In this study, all methods were conducted in accordance with guidelines and regulations to comply with the GLP and chemical wastes management established by the Cinvestav-IPN. The sampling protocol was approved by the Bioethics Commission of Nayarit State, Mexico (CEBN/011/2017). The subject gave written informed consent for their participation and blood samples were collected early in the morning. A human blood sample was collected from a healthy adult volunteer from Mexico City.
RBC AChE activity was evaluated according to the method reported by Ellman et al.[12] with some modifications. Briefly, fresh human whole blood samples were diluted (1:100) with Triton X-100 (0.03% in phosphate buffer 0.1 M, pH 7.4). The enzymatic assay media consisted of 500 µL diluted blood, 1 mL of phosphate buffer 0.1 M, pH 7.4, 0.05 mL of DTNB (10 mM), and 5 µL of ethopropazine (6 mM), which were mixed and incubated at 37 °C for 10 min. The reaction was started by the addition of 25 µL of substrate ATCh (28.3 mM) and absorbance was monitored at 436 nm during 3 min with a UV-Vis spectrophotometer (Thermo Scientific GENESYS 10S). AChE activity was corrected for hemoglobin (Hb) content and was reported in U/g Hb. The Hb content was determined at 540 nm using the Drabkin reagent. The molar extinction coefficient of the TNB hydrolysis product was ε = 10,600 M^−1 cm^−1.
To determine the inhibitory effect on human RBC AChE activity, the hemolyzed samples were preincubated with Tem and its metabolites for 15 min at 37 °C. The RBC AChE activity was evaluated as previously described by Bernal-Hernández et al.[13] in three independent experiments conducted in duplicate. Stock solutions of Tem metabolites were individually prepared in ethanol (Tem-SO, 4.14 mM; Tem-dox-SO, 4.44 mM, and Tem-dox-SO2, 4.20 mM). These solutions were used to prepare other diluted solutions in phosphate buffer (0.1 M, pH 7.4) to achieve the following concentrations: 0.1 to 10 μM Tem-SO, 0.05 to 5 μM Tem-dox-SO, and 0.02 to 2 μM Tem-dox-SO2. […] Log IC50, IC50, and R^2 values were estimated from the normalized AChE or BuChE activity with respect to the control assays (absence of the metabolite) and plotted as a function of the logarithm of metabolite concentration using Prism 8 software (GraphPad Software).

[2] = rats, orally administered; cited from earlier work

T1 sequence (P22303 32-617 isoform P22303-2 limits assumed): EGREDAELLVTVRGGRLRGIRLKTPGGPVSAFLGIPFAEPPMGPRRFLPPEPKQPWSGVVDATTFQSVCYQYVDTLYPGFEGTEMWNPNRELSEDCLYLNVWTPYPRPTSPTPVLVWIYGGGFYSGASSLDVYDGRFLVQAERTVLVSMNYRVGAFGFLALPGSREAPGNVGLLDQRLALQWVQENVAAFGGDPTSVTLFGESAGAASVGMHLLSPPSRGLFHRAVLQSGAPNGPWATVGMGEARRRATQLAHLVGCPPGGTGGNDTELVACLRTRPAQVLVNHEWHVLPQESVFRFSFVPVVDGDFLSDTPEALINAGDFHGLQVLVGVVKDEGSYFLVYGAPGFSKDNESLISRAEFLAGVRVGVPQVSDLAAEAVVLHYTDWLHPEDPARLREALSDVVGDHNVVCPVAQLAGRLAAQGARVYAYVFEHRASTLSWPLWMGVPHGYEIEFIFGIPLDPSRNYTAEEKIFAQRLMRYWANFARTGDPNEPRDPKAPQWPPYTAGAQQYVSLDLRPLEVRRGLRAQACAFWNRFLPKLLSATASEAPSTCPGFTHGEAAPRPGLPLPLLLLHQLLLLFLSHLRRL

SMILES | effect on human RBC AChE activity ([1]; even at higher concentrations than 50 µM) | absorbed into the bloodstream [2] | IC50 [1] [nM]
COP(=S)(OC)Oc1ccc(Sc2ccc(OP(=S)(OC)OC)cc2)cc1 [Tem, O,O,O′,O′-tetramethyl O,O′-thiodi-p-phenylene bis(phosphorothionate)] | did not exhibit any effect | at least 40% | –
COP(=S)(OC)Oc1ccc([S+]([O-])c2ccc(OP(=S)(OC)OC)cc2)cc1 [Tem-SO] | – | – | 553
COP(=O)(OC)Oc1ccc(S(=O)(=O)c2ccc(OP(=O)(OC)OC)cc2)cc1 [Tem-dox-SO2] | – | – | 24.9
COP(=O)(OC)Oc1ccc([S+]([O-])c2ccc(OP(=O)(OC)OC)cc2)cc1 [Tem-dox-SO] | – | – | 97.7
